The results in this text go back to US7723331B2, “Thienopyrimidine compounds and uses thereof” (AstraZeneca AB, priority 2006, dated 2010).

Data set [1] deals with T1, human melanin concentrating hormone receptor 1 (hMCHr1) (Homo sapiens, UniProt Q99705).
T1 construct: purchased Euroscreen; host or cells: CHO-K1
Put plainly: MCHr1 radioligand binding (125I-MCH displacement). The settings on record: membranes from CHO-K1 cells expressing hMCHr1, 125I-MCH. On the procedure:
Assays were performed on membranes prepared from CHO-K1 cells expressing the human melanin concentrating hormone receptor 1 (hMCHr1, […] protein; Euroscreen). Assays were performed in a 96-well plate format in a final reaction volume of […] per well. Each well contained 6 μg of membrane proteins diluted in binding buffer (50 mM Tris, 3 mM MgCl2, 0.05% bovine serum albumin and the radioligand ^125I-MCH (IM344 Amersham) was added to give 10 000 cpm (counts per minute) per well. Each well contained 2 μl of the appropriate concentration of competitive antagonist prepared in DMSO or in HOAc and left to stand at 30° C. for 60 minutes. Non-specific binding was determined as that remaining following incubation with 1 μM MCH (Melanin concentrating hormone, H-1482 Bachem). The reaction was terminated by transfer of the reaction to GF/A filters using a Micro96 Harvester (Skatron Instruments, Norway). Filters were washed with assay buffer. Radioligand retained on the filters was quantified using a 1450 Microbeta TRILUX (Wallac, Finland).
Non-specific binding was subtracted from all values determined. Maximum binding was that determined in the absence of any competitor following subtraction of the value determined for non-specific binding. Binding of compounds at various concentrations was plotted according to the equation y=A+((B−A)/1+((C/x)^D))) and IC50 estimated where: […]

In another data set the target is hERG (Homo sapiens, UniProt Q12809). As to the kind of experiment: hERG activity (planar-array-based voltage clamp). The format is cell-based. The settings on record: modified method of Kiss et al. On the procedure: hERG testing was performed using a modified version of the method described by Kiss et al., “High throughput ion-channel pharmacology: planar-array-based voltage clamp.” Assay Drug Dev Technol., 2003, 1, 127-35.
Chain of hERG (Q12809 whole entry): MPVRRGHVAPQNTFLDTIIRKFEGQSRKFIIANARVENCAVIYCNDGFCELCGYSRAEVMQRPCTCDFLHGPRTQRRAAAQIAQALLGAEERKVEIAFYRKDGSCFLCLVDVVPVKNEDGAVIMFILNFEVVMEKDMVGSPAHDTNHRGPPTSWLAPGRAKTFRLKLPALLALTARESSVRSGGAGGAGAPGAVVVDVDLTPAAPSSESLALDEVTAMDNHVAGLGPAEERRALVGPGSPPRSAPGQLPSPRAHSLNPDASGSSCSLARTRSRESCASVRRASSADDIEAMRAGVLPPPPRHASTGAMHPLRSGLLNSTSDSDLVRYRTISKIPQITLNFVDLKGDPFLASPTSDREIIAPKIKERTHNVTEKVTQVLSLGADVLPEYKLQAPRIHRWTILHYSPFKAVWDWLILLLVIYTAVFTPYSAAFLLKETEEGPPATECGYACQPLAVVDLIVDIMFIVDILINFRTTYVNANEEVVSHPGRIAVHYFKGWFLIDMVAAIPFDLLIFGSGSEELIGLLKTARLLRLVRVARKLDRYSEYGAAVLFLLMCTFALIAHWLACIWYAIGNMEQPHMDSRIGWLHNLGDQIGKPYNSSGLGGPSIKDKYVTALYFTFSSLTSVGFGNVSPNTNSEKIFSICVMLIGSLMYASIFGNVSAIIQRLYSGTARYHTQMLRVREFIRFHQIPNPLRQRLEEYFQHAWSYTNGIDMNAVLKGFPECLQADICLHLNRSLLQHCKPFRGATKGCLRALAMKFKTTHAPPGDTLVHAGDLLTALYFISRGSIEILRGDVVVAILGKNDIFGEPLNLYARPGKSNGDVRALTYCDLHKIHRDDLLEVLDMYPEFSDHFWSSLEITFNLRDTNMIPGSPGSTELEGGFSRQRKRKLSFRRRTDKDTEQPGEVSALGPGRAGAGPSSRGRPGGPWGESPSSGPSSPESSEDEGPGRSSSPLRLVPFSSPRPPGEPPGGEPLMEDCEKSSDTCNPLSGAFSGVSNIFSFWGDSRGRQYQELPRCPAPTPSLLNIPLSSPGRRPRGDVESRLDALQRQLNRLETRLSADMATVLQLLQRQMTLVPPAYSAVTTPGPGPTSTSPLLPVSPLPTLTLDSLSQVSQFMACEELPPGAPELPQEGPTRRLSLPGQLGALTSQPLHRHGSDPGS
A general note: The hERG channel carries a current that helps repolarise heart muscle cells.

The target in the next data set is T2, recombinant hMCHr1 (Homo sapiens, UniProt Q99705).
T2 construct: purchased Euroscreen
T2 sequence (Q99705 whole entry): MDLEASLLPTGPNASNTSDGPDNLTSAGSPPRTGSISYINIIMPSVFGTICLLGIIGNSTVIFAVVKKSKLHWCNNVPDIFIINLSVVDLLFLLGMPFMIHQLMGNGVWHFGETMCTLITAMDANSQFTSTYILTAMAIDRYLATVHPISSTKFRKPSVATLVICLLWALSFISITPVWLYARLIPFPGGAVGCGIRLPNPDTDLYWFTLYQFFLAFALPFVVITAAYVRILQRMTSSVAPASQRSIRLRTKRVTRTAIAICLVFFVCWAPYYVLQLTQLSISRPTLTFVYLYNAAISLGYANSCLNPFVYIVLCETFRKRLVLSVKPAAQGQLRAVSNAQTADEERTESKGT
Put plainly: MCHr1 functional assay ([35S]GTPγS). Format: biochemical. The settings on record: hMCHr1 membranes, ED80 concentration of MCH. On the procedure: Membranes expressing recombinant hMCHr1 (5.45 pmol/mg protein; Euroscreen) were prepared in assay buffer (50 mM HEPES, 100 mM NaCl, 5 mM MgCl2, 1 mM EDTA, 200 μM DTT, 20 μM GDP (Sigma) containing 0.1 μg/ml BSA, pH7.4) before assay. The assays were performed using membranes at 6 μg/well in an assay volume of 200 μL and the appropriate concentrations of compounds prepared in DMSO or in HOAc. The reaction was started by addition of 0.056 nM [^35S]GTPγS (Specific activity >1000 Ci/mmol; Amersham) and an ED80 concentration of MCH (determined for each membrane and each MCH batch). Non-specific binding was determined using 20 μM non-radiolabelled GTPγS. Plates were incubated for 45 min at 30° C. Free and bound GTPγS were separated by filtration binding using GF/B filter mats presoaked in wash buffer (50 mM Tris, 5 mM MgCl2, 50 mM NaCl, pH 7.4) using a Micro96 cell harvester (Skatron Instruments) and the filters then dried at 50° C. before counting using a 1450 Microbeta TRILUX (Wallac).
Data are means±SD for experiments performed in triplicate. IC50 values of antagonists were determined using non-linear regression analysis of concentration response curves using Activity Base.

T1 sequence (Q99705 whole entry): as above

Turning to `CN1[C@@H]2CC[C@H]1C[C@@H](Oc1cccc(Cn3cnc4cc(-c5ccc(Cl)cc5)sc4c3=O)c1)C2` [Example 1, 6-(4-Chlorophenyl)-3-(3-{[(3-endo)-8-methyl-8-azabicyclo[3.2.1]oct-3-yl]oxy}benzyl)thieno[3,2-d]pyrimidin-4(3H)-one], the values for the IC50 (in data set [1]; on hERG) were 0.026 µM and 6.5 µM, respectively. As for `CN1CCN(Cc2cccc(Cn3cnc4cc(-c5ccc(Cl)cc5)sc4c3=O)c2)CC1` [Example 5, 6-(4-Chlorophenyl)-3-{3-[(4-methylpiperazin-1-yl)methyl]benzyl}thieno[3,2-d]pyrimidin-4(3H)-one], the IC50 (commonly the point on the concentration scale where inhibition reaches its midpoint) at recombinant hMCHr1 amounted to 0.042 µM. Consider `CN1CCC(Oc2cccc(Cn3cnc4cc(-c5ccc(Cl)cc5)sc4c3=O)n2)CC1` [Example 11, 6-(4-Chlorophenyl)-3-({6-[(1-methylpiperidin-4-yl)oxy]pyridin-2-yl}methyl)thieno[3,2-d]pyrimidin-4(3H)-one], for which the melting point (commonly the temperature of the solid-liquid transition) was in the range of 202 to 203 °C.
